Assays:
PDH = details: cited from earlier work
[1] = after repeated administration (Evans and Stacpoole 1982); cited from earlier work

melting point | Compound | activity of PDH (PDH; after acute administration in animals (Vary et al., 1988)) | proportion of PDH in its active form (PDH; single administration, 150 mg/kg, intraperitoneally (Vary et al. 1988)) | plasma glucose [1]
121 to 122 °C | C[C@@](O)(C(=O)Nc1ccc(S(=O)(=O)c2ccccc2)cc1F)C(F)(F)F |  |  | 
 | O=C(O)C(Cl)Cl [DCA, dichloroacetic acid] | increases the activity of PDH | increased the proportion of PDH in its active form | significant decrease in plasma glucose
123 to 124 °C | Cc1cc(C(=O)c2ccccc2)ccc1NC(=O)C(C)(O)C(F)(F)F (centres unmarked) |  |  | 
